Experimental data taken from ChEMBL document CHEMBL1833797, “Microwave assisted synthesis and antimicrobial evaluation of new fused pyran derivatives bearing 2-morpholinoquinoline nucleus” (2011).
Values after ≈ are worked out from the molar mass of the structure shown.

Experiments:
Streptococcus pneumoniae = test: Antimicrobial activity against Streptococcus pneumoniae MTCC 1936 for 24 hrs by microdilution method; assay type: functional; settings: MTCC 1936, 24 h
Clostridium tetani = test: Antimicrobial activity against Clostridium tetani MTCC 449 for 24 hrs by microdilution method; assay type: functional; settings: MTCC 449, 24 h
Bacillus subtilis = test: Antimicrobial activity against Bacillus subtilis MTCC 441 for 24 hrs by microdilution method; assay type: functional; settings: MTCC 441, 24 h
Salmonella typhi = test: Antimicrobial activity against Salmonella typhi MTCC 98 for 24 hrs by microdilution method; assay type: functional, Salmonella enterica subsp. enterica serovar Typhi; settings: Salmonella enterica, MTCC 98, 24 h
Vibrio cholerae = test: Antimicrobial activity against Vibrio cholerae MTCC 3906 for 24 hrs by microdilution method; assay type: functional; settings: MTCC 3906, 24 h
Escherichia coli = test: Antimicrobial activity against Escherichia coli MTCC 443 for 24 hrs by microdilution method; assay type: functional; settings: MTCC 443, 24 h
Aspergillus fumigatus = test: Antifungal activity against Aspergillus fumigatus MTCC 3008 for 48 hrs by microdilution method; assay type: functional
Candida albicans = test: Antifungal activity against Candida albicans MTCC 227 for 48 hrs by microdilution method; assay type: functional

| Compound | MIC (Streptococcus pneumoniae) [µg/mL] | MIC (Clostridium tetani) [µg/mL] | MIC (Bacillus subtilis) [µg/mL] | MIC (Salmonella typhi) [µg/mL] | MIC (Vibrio cholerae) [µg/mL] | MIC (Escherichia coli) [µg/mL] | MIC (Aspergillus fumigatus; MTCC 3008, 48 h) [µg/mL] | MIC (Candida albicans; MTCC 227, 48 h) [µg/mL] | MIC (Aspergillus fumigatus) [µg/mL] | MIC (Candida albicans) [µg/mL] |
| --- | --- | --- | --- | --- | --- | --- | --- | --- | --- | --- |
| COc1ccc2nc(N3CCOCC3)c(C3C(C#N)=C(N)Oc4c3c(=O)oc3ccccc43)cc2c1 (configuration not stated) | 200 (≈ 415 µM) | 500 (≈ 1040 µM) | 200 (≈ 415 µM) | 500 (≈ 1040 µM) | 500 (≈ 1040 µM) | 500 (≈ 1040 µM) | 1000 (≈ 2070 µM) | 200 (≈ 415 µM) |  |  |
| COc1ccc2nc(N3CCOCC3)c(C3C(C#N)=C(N)Oc4[nH]nc(C)c43)cc2c1 (configuration not stated) | 200 (≈ 478 µM) | 250 (≈ 597 µM) | 200 (≈ 478 µM) | 250 (≈ 597 µM) | 250 (≈ 597 µM) | 250 (≈ 597 µM) | 500 (≈ 1190 µM) | 250 (≈ 597 µM) |  |  |
| Cc1ccc2nc(N3CCOCC3)c(C3C(C#N)=C(N)Oc4[nH]nc(C)c43)cc2c1 (configuration not stated) | 200 (≈ 497 µM) | 250 (≈ 621 µM) | 200 (≈ 497 µM) | 250 (≈ 621 µM) | 250 (≈ 621 µM) | 200 (≈ 497 µM) | 1000 (≈ 2480 µM) | 1000 (≈ 2480 µM) |  |  |
| Cc1ccc2nc(N3CCOCC3)c(C3C(C#N)=C(N)Oc4c3ccc3ccccc43)cc2c1 (configuration not stated) | 500 (≈ 1110 µM) | 500 (≈ 1110 µM) | 500 (≈ 1110 µM) | 250 (≈ 557 µM) | 12.5 (≈ 27.9 µM) | 200 (≈ 446 µM) | 500 (≈ 1110 µM) | > 1000 |  |  |
| Cc1n[nH]c2c1C(c1cc3ccccc3nc1N1CCOCC1)C(C#N)=C(N)O2 (configuration not stated) | 250 (≈ 644 µM) | 100 (≈ 257 µM) | 250 (≈ 644 µM) | 100 (≈ 257 µM) | 200 (≈ 515 µM) | 62.5 (≈ 161 µM) | 1000 (≈ 2570 µM) | 1000 (≈ 2570 µM) |  |  |
| Cc1ccc2nc(N3CCOCC3)c(C3C(C#N)=C(N)OC4=C3C(=O)c3ccccc3C4=O)cc2c1 (configuration not stated) | 100 (≈ 209 µM) | 250 (≈ 522 µM) | 200 (≈ 418 µM) | 100 (≈ 209 µM) | 250 (≈ 522 µM) | 250 (≈ 522 µM) | > 1000 | > 1000 |  |  |
| O=C(N[C@H](CO)[C@H](O)c1ccc([N+](=O)[O-])cc1)C(Cl)Cl [CHLORAMPHENICOL] | 50 (≈ 155 µM) | 50 (≈ 155 µM) | 50 (≈ 155 µM) | 50 (≈ 155 µM) | 50 (≈ 155 µM) | 50 (≈ 155 µM) |  |  |  |  |
| N#CC1=C(N)Oc2c(ccc3ccccc23)C1c1cc2ccccc2nc1N1CCOCC1 (configuration not stated) | 500 (≈ 1150 µM) | 250 (≈ 575 µM) | 250 (≈ 575 µM) | 500 (≈ 1150 µM) | 500 (≈ 1150 µM) | 500 (≈ 1150 µM) | > 1000 | 500 (≈ 1150 µM) |  |  |
| COc1ccc2nc(N3CCOCC3)c(C3C(C#N)=C(N)OC4=C3C(=O)c3ccccc3C4=O)cc2c1 (configuration not stated) | 200 (≈ 404 µM) | 100 (≈ 202 µM) | 200 (≈ 404 µM) | 200 (≈ 404 µM) | 250 (≈ 506 µM) | 100 (≈ 202 µM) | 1000 (≈ 2020 µM) | > 1000 |  |  |
| Cc1ccc2nc(N3CCOCC3)c(C3C(C#N)=C(N)Oc4cc(O)ccc43)cc2c1 (configuration not stated) | 500 (≈ 1210 µM) | 200 (≈ 483 µM) | 500 (≈ 1210 µM) | 200 (≈ 483 µM) | 200 (≈ 483 µM) | 200 (≈ 483 µM) | > 1000 | > 1000 |  |  |
| N#CC1=C(N)OC2=C(C(=O)c3ccccc3C2=O)C1c1cc2ccccc2nc1N1CCOCC1 (configuration not stated) | 500 (≈ 1080 µM) | 500 (≈ 1080 µM) | 500 (≈ 1080 µM) | 12.5 (≈ 26.9 µM) | 500 (≈ 1080 µM) | 200 (≈ 431 µM) | > 1000 | 100 (≈ 215 µM) |  |  |
| COc1ccc2nc(N3CCOCC3)c(C3C(C#N)=C(N)Oc4c3ccc3ccccc43)cc2c1 (configuration not stated) | 250 (≈ 538 µM) | 250 (≈ 538 µM) | 250 (≈ 538 µM) | 100 (≈ 215 µM) | 200 (≈ 431 µM) | 200 (≈ 431 µM) | 1000 (≈ 2150 µM) | 100 (≈ 215 µM) |  |  |
| NYSTATIN |  |  |  |  |  |  |  |  | 100 | 100 |
| N#CC1=C(N)Oc2c(c(=O)oc3ccccc23)C1c1cc2ccccc2nc1N1CCOCC1 (configuration not stated) | 250 (≈ 553 µM) | 200 (≈ 442 µM) | 250 (≈ 553 µM) | 100 (≈ 221 µM) | 250 (≈ 553 µM) | 200 (≈ 442 µM) | 500 (≈ 1110 µM) | 500 (≈ 1110 µM) |  |  |
| COc1ccc2nc(N3CCOCC3)c(C3C(C#N)=C(N)Oc4cc(C)oc(=O)c43)cc2c1 (configuration not stated) | 250 (≈ 560 µM) | 250 (≈ 560 µM) | 200 (≈ 448 µM) | 250 (≈ 560 µM) | 250 (≈ 560 µM) | 200 (≈ 448 µM) | 1000 (≈ 2240 µM) | 250 (≈ 560 µM) |  |  |
